# Laboratory results reported in US20230114264A1, “ACTIVATION OF LYTIC GENES IN CANCER CELLS” (priority 2020, published 2023).
# Tested on: BGLF4
# Test: BGLF4 gRNA transfection into C666-1 cells, Western blotting
# Type: cell-based, Epstein-Barr virus (EBV)
# Conditions: FIG. 12B
# Method: BGLF4 gRNAs were tested for triggering EBV reactivation in C666-1 cells expressing HA-dCas9-EGFP and 3×FLAG-pUFa-p65HSF1. Seven EBV genomic loci at the BGLF4 promoter were used to design the gRNAs for BGLF4 induction (gRNA (1), gRNA (2), gRNA (3), gRNA (4), gRNA (5), gRNA (6), and gRNA (7)). Individual BGLF4 gRNAs were transfected into cells and the induction of BGLF4 protein expression was studied by Western blotting. […] To study the combination effects of BGLF4 gRNAs, BGLF4 gRNAs were transfected into cells individually or in combination. […] As a positive control of EBV reactivation, the C666-1 cells were treated with the chemical inducer Gemcitabine to trigger EBV reactivation.
compound,measurement,value
Nc1ccn([C@@H]2O[C@H](CO)[C@@H](O)C2(F)F)c(=O)n1 [Gemcitabine],EBV reactivation (BZLF1 expression),implied the trigger of EBV reactivation
